We go through 2 compounds from patent publication US9322895B2, “Method of determining metabolic function using magnetic resonance spectroscopic imaging” (Greater Glasgow Health Board, priority 2009, dated 2016).

Structures are written as SMILES.

For data set [1] the following is noted: standard temperature and pressure; cited from earlier work.
Data set [2] relates to anaesthetised rats following a middle cerebral artery occlusion (MCAO). Description: Localised 1H spectroscopy (PRESS) with oxygen challenge in rats following MCAO. The class given is in vivo. The note with it: rat MCAO. On the procedure:
In-vivo MRI experiments were performed on anaesthetised rats following a middle cerebral artery occlusion (MCAO). The measurements included RARE T2 imaging, diffusion weighted imaging (DWI), perfusion weighted imaging (PWI), 1H localised spectroscopy and lactate difference imaging (LDI).
The first experiment used a standard localised spectroscopy sequence (PRESS) to acquire 1H spectra. One voxel was placed in the presumed penumbral region (as indicated by DWI/PWI mismatch), a second voxel was placed in the normal contralateral hemisphere (see FIG. 1)

Turning to `FC1(F)C(F)(F)C(F)(F)C2(F)C(F)(F)C(F)(F)C(F)(F)C(F)(F)C2(F)C1(F)F` (stereo not shown) [Perflorodecalin], the “oxygen carried by 100 ml” value in data set [1] is 49 mL.

`O=O` [oxygen]: the “lactate peak in the penumbra on returning to 100% inhaled air” value in data set [2] (after the oxygen challenge) was “increased back to previous level”. In data set [2] (challenge of 100% inhaled oxygen, voxel in DWI/PWI mismatch), the “lactate peak in the penumbral region” value is recorded as “significant decrease”. Also, the “lactate peak in the contralateral region” value in data set [2] (challenge of 100% inhaled oxygen, voxel in normal contralateral hemisphere) is on record as “remained unchanged”.
